Assay results taken from patent US20110105510A1, “PROPHYLACTIC/AMELIORATING OR THERAPEUTIC AGENT FOR NON-ALCOHOLIC STEATOHEPATITIS” (priority 2008, published 2011).

Legend:
[1] = tested on: high fat and high sucrose diet taking SD rats; assay: Efficacy on high fat and high sucrose diet taking rats; assay type: in vivo, rat; conditions: HF diet SD rats, four weeks, oral once a day; EPA-E 1000 mg/kg or compound 2 1 mg/kg; compared with the control group
Protocol: Four-week-old male SD rats are fed at 23° C. on a 12:12 light/dark cycle, whereupon they are permitted to take either an ordinary diet (F-1; Funabashi Farm Co., Ltd.) or a high fat and high sucrose diet (TD88137 from Harlan […]; hereafter referred to as “HF diet”) freely for four weeks. The rats are divided into five groups (each comprising 10 animals), namely, normal group (ordinary diet-loaded), control group (HF diet-loaded), EPA-E group (HF diet-loaded, plus EPA-E-administered), compound 2 group (HF diet-loaded, plus compound 2-administered), and combined application group (HF diet-loaded, plus EPA-E-administered, plus compound 2-administered). During the feeding, 1000 mg/kg of EPA-E is administered to the EPA-E group, 1 mg/kg of compound 2 to the compound 2 group, as well as 1000 mg/kg of EPA-E and 1 mg/kg of compound 2 are administered to the combined application group, with each administration being orally carried out once a day by suspending the relevant drug or drugs in a 5% aqueous solution of gum arabic. To the normal group and the control group, a 5% aqueous solution of gum arabic is orally administered once a day. After the feeding for four weeks, blood samples are collected to measure the neutrophil count and conduct biochemical assays of the plasma.

NASH = conditions: EPA-E of high purity, 2700 mg/day for 12 months; cited from earlier work
[2] = tested on: diabetic mice (db/db) loaded with a methionine-choline-deficient diet; assay: Efficacy on methionine-choline-deficient diet diabetic mice; assay type: in vivo, mouse; conditions: MCD diet db/db mice, two weeks, oral once a day; EPA-E 1000 mg/kg or compound 1 1 mg/kg; compared with the control group
Protocol: Pharmacological actions of EPA-E and/or compound 1 on hepatic disorders and fibrosis are confirmed by using diabetic mice loaded with a methionine-choline-deficient diet (hereafter referred to as “MCD diet”), which are known for their development of NASH-like hepatic lesions. Seven-week-old male db/db mice (Charles River Japan, Inc.) are fed at 23° C. on a 12:12 light/dark cycle, whereupon they are permitted to take either an ordinary diet (F-1; Funabashi Farm Co., Ltd.) or a MCD diet (Dyets, Inc.) freely for two weeks. The mice are divided into five groups (each comprising 20 animals), namely, normal group (ordinary diet-loaded), control group (MCD diet-loaded), EPA-E group (MCD diet-loaded, plus EPA-E-administered), compound 1 group (MCD diet-loaded, plus compound 1-administered), and combined application group (MCD diet-loaded, plus EPA-E-administered, plus compound 1-administered). During the feeding, 1000 mg/kg of EPA-E is administered to the EPA-E group, 1 mg/kg of compound 1 to the compound 1 group, as well as 1000 mg/kg of EPA-E and 1 mg/kg of compound 1 are administered to the combined application group, with each administration being orally carried out once a day by suspending the relevant drug or drugs in a 5% aqueous solution of gum arabic. To the normal group and the control group, a 5% aqueous solution of gum arabic is orally administered once a day. […]

Row | Compound | increases of the neutrophil count, TNFα, IL-6, high sensitivity CRP, ferritin, thioredoxin and type IV collagen [1] | increases of the plasma AST and ALT levels [1] | NASH (AST or ALT, inflammatory cytokines or oxidative stress markers, hepatobiopsy) (NASH) | increases of the plasma AST and ALT levels [2] | increases of the type IV collagen, hyaluronic acid and TIMP-1 levels [2]
1 | CCn1ncc2c(-c3cncc(Br)c3)c(C#N)c(C)nc21 [compound 2, 4-(5-bromo-3-pyridyl)-1-ethyl-6-methyl-1H-pyrazolo[3,4-b]pyridine-5-carbonitrile] | suppressed | suppressed |  |  | 
2 | CC/C=C\C/C=C\C/C=C\C/C=C\C/C=C\CCCC(=O)OCC [EPA-E, EPA ethyl] | suppressed | suppressed | amelioration of NASH | suppressed | suppressed
